In patent publication US20240140943A1, “COMPETITIVE AND NONCOMPETITIVE INHIBITORS OF THE MUSCARINIC ACETYLCHOLINE RECEPTOR M5” (Vanderbilt University, priority 2021, published 2024):

Target: T1, human M5 receptors (hM5) (Homo sapiens, UniProt P08912)
T1 construct: expressed in transfected cells
T1 sequence (P08912 1-532): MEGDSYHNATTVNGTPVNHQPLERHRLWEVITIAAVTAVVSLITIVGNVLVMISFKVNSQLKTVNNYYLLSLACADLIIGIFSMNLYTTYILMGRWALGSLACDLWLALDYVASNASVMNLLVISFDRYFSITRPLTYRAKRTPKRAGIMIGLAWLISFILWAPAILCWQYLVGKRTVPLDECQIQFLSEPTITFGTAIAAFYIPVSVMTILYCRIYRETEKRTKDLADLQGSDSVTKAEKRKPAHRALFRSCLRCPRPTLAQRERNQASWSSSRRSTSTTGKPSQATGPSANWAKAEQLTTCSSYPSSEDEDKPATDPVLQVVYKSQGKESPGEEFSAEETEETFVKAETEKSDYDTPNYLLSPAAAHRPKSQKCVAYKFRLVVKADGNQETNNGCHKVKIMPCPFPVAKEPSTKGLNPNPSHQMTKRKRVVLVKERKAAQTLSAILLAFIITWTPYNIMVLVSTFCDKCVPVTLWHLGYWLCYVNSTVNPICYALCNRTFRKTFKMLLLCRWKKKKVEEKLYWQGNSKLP
Assay: Cell-based functional calcium mobilization assay of mAChR M5 activity
Conditions: CHO cells stably expressing hM5; for IC50: calcium mobilization, inhibition of EC80 acetylcholine response; for EC80 MIN: minimum response at EC80 acetylcholine addition, normalized to maximum acetylcholine response
Protocol: All functional cell-based assays were performed essentially as previously described (Mario et al., Mol. Pharm. 2009, 75(3), 577-588; Brady et al., J. Pharm. & Exp. Ther. 2008, 327, 941-953). Initial, single point (10 μM) compound characterization was performed in stable Chinese Hamster Ovary (CHO) cell lines constitutively expressing human M5 receptors. These were plated at 15,000 cells per 20 μL per well in Greiner 384-well black-walled, TC-treated, clear-bottomed plates (Fisher) in Ham's F12 medium supplemented with 10% FBS and 20 mM HEPES. Cells were incubated overnight at 37° C. under 5% CO2. The following day, medium was exchanged with assay buffer (Hank's Balanced Salt Solution supplemented with 20 mM HEPES and 2.5 mM Probenecid, pH 7.4) leaving 20 μL of assay buffer in each well. This was followed by the addition of 20 μL of 2.3 μM of Fluo-4 AM (Invitrogen) in assay buffer (final concentration 1.15 μM). The cells were then incubated 50 minutes at 37° C. under 5% CO2. The assay buffer plus dye was then exchanged with fresh assay buffer leaving a volume of 20 μL in each well. Test compounds were diluted into assay buffer to a 2× (20 μM) concentration in 0.2% dimethylsulfoxide (DMSO) in columns 3-22 with matching DMSO concentration in columns 1, 2, 23, and […]; compounds were added to the assay for a final concentration of 10 μM and a final DMSO concentration of 0.1%. Acetylcholine (Sigma-Aldrich) was prepared to provide 5× concentrations of EC20, EC80, and ECmax in the triple-addition assay, providing a signal window to view agonism, potentiation, and inhibition of the acetylcholine response as well as a means to normalize to the maximum acetylcholine response.
Either an FDSS (Hamamatsu) or Panoptic (WaveFront Biosciences) kinetic imaging plate reader was used for assay execution and measurement of calcium flux. After establishing baseline fluorescence, test compounds (20 μL) were added to the cells using the reader's integrated pipettor and allowed to equilibrate for 140 seconds before addition of the EC20 concentration of acetylcholine (10 μL) along with vehicle in selected DMSO-only wells in the outer two columns. The EC80 concentration of acetylcholine (10 μL) was added 125 seconds after the EC20 addition along with ECmax concentration in the wells receiving vehicle in the second addition. The raw fluorescence data from each well was normalized to the corresponding initial fluorescence reading (static ratio). The maximum fluorescence value following each addition was determined and the minimum value within that same timeframe was subtracted for each well then normalized to the average of the ECmax maximum-minimum response, providing a % AChmax value for each addition for each well. The single point values represent mean values determined within the EC80 addition timeframe obtained from at least three independent determinations performed in triplicate or greater (error bars represent +/−SEM) unless otherwise specified.
Further characterization of test compounds (compound potency and mAChR subtype-selectivity) was performed on the FDSS with calcium mobilization assays performed as previously described (Mario et al., 2009; Brady et al., 2008) and in a format similar to that described above using the same reagents. CHO cells stably expressing hM1, hM2/Gqi5, hM3, hM4/Gqi5, hM5, rM1, rM2/Gqi5, rM3, rM4/Gqi5, or rM5 were plated in the manner described above. A ten-point concentration range of test compound was serial diluted in assay buffer to 2× final concentration and acetylcholine was diluted in assay buffer to 5× of the EC20 and EC80 concentrations, determined empirically and 5× maximal (2 mM final concentration) stock concentrations. FDSS protocols were carried out as described above; the static ratio was calculated and the minimum response subtracted from the maximum response within the timeframe of each addition. This max-min response was then normalized to the maximum acetylcholine response. […]

| Compound | IC50 | EC80 MIN |
| --- | --- | --- |
| Cc1nnc(S(=O)(=O)[C@H]2CC[C@H](c3cn4ncnc4cc3Cl)CC2)s1 [Compound 1, trans-2-((4-(7-chloro-[1,2,4]triazolo[1,5-a]pyridin-6-yl)cyclohexyl)sulfonyl)-5-methyl-1,3,4-thiadiazole] | 185 nM | 3% |
| Cc1nnc(S(=O)(=O)[C@H]2CC[C@H](c3cn4ncnc4cc3Cl)CC2)o1 [Compound 2, trans-2-((4-(7-chloro-[1,2,4]triazolo[1,5-a]pyridin-6-yl)cyclohexyl)sulfonyl)-5-methyl-1,3,4-oxadiazole] | 532 nM | 3% |
| Cc1nnc(S(=O)(=O)[C@H]2CC[C@H](c3cn4ncnc4cc3Cl)CC2)n1C [Compound 3, trans-7-chloro-6-(4-((4,5-dimethyl-4H-1,2,4-triazol-3-yl)sulfonyl)cyclohexyl)-[1,2,4]triazolo[1,5-a]pyridine] | 33 nM | 2% |
| Cc1nnc(S(=O)(=O)[C@H]2CC[C@@H](c3cn4ncnc4cc3C)CC2)o1 [Compound 4, cis-2-methyl-5-((4-(7-methyl-[1,2,4]triazolo[1,5-a]pyridin-6-yl)cyclohexyl)sulfonyl)-1,3,4-oxadiazole] | > 10000 nM | 55% |
